Laboratory results from patent US20040082554A1, “Neuroactive steroid derivatives and method of use” (priority 2003, published 2004).
Entries after “also recorded” stand apart in the source; their conditions may differ.

Columns and labels:
[1] = system: NMDA receptor; assay: NMDA-induced striatal dopamine release, in vivo microdialysis; set-up: species or system rat
Method: In vivo Microdialysis. Prior to surgery the animals were anesthetized with sodium pentobarbital (50 mg/kg, i.p) and placed in a stereotaxic apparatus (David Kopf Instruments). A rostro-caudal incision was then made to expose the dorsal surface of the skull. A hole was drilled in the skull above the striatum with a stereotaxic drill (+0.5 mm A/P and +2.9 mm M/L relative to bregma, (Paxinos and Watson, 1997). Two other holes were drilled in the skull where screws were secured. A dialysis guide cannula (CMA Microdialysis; Acton, Mass.) was lowered 3 mm ventrally and was then secured to the skull with dental cement. All rats were housed in individual cages following surgery.
No less than two days after surgery, the rats were briefly anesthetized with isoflurane to facilitate the removal of the dummy from the guide cannula and insertion of a microdialysis probe (CMA 10, dialysis membrane length of 2 mm of polycarbonate, with a molecular weight cut off of 20 kD) into the striatum. Animals were allowed to recover for 15 min prior to the initiation of the experiment following probe insertion. Artificial cerebrospinal fluid (aCSF) was pumped through the dialysis probe at a rate of 2 μl/min. Twelve 20 min samples were collected over 240 min and immediately stored at −20° C. The first six 20 min samples were collected to establish the baseline concentration of dopamine. […] At this point the perfusate for the DMSO group was changed from aCSF to one of the following solutions: NMDA (1 mM) or NMDA (1 mM) plus D-AP5 (100-200 μM). The perfusate for the steroid group was switched from aCSF to NMDA (1 mM). After collection of sample 7, the perfusate was switched back to aCSF and 5 more 20 min samples were collected. Upon termination of the experiment, samples were stored at −80° C. until analysis.
All samples were analyzed using high pressure liquid chromatography (HPLC) with electrochemical detection (ESA; Chelmsford, Mass.). The mobile phase consisted of 50 mM Na2HPO4, 20 mM citric acid, 1.5 mM heptanosulfonic acid, 0.1 mM EDTA, and 5% methanol at pH 4.0. The dopamine was separated on a 15 cm reverse phase C-18 column (Alltech; Deerfield, Ill.) and oxidized at a potential of 175 mV. Dopamine concentrations per sample were normalized to an external standard curve and plotted as percentage change from baseline.

[2] = system: mice; assay: Tail flick test (latency to remove the tail from the light source); type: in vivo; settings: for dose dependence of tail flick latency: mice, 5, 10 or 15 mg/kg i.p., tested every 10 min for 120 min
Method: FIG. 9. […] Following the injection the mice were tested for every 10 min for 120 min. The latency to remove the tail from the light source was used as a measure of analgesia. […] The values are mean+SEM for 10-15 mice for each group. Data were analyzed using a one-way ANOVA followed by Fisher's LSD.* Denotes significance compared to control.
FIG. 10. […] Mice were injected with PACME (5, 10 or 15 mg/kg). Following the injection the mice were tested for every 10 min for 120 min. The latency to remove the tail from the light source was used as a measure of analgesia. […] Data were analyzed using a one-way ANOVA followed by Fisher's LSD. The values are mean±SEM for 10-15 mice for each group.* Denotes significance compared to control.
The data were analyzed using a one-way ANOVA followed by Fisher's LSD.

[3] = system: NMDA receptor; assay: Behavioral hyperactivity (horizontal activity) induced by intra-striatal microinjection of NMDA; type: in vivo, rat
Method: Microinjection Experiments. Rats were anesthetized with sodium pentobarbital (50 mg/kg, i.p.) and placed in a stereotaxic apparatus (David Kopf Instruments). A rostro-caudal incision was then made to expose the dorsal surface of the skull. Two bilateral holes were drilled above the striatum (+1.0 mm A/P, +3.0 mm M/L, −3.0 mm D/V relative to bregma, Paxinos and Watson, 1997) and guide cannulae (9 mm, 24 gauge) were implanted and fastened to the skull using screws and dental cement. All rats were housed in individual cages following surgery. Three days post surgery rats were habituated to the photocell apparatus (AccuScan Instruments; Columbus, Ohio) for two hours. On the day of the experiment rats were rehabituated for one hour prior to the start of the experiment. […] The animals were returned to the behavior boxes and activity was monitored continuously for 60 min.
Horizontal activity was measured in 5 min blocks for 60 min immediately following microinjection. The data were analyzed with a mixed factors analysis of variance (ANOVA) with repeated measures over time in FIG. 4A. […] The data in FIG. 4B represent the 10 min time point from FIG. 4A and was analyzed using a one-way ANOVA.

[4] = system: NMDA receptors; settings: in vitro studies, Park-Chung et al., 1994; cited from earlier work
[5] = system: rats; assay: Cocaine sensitization (horizontal activity after daily cocaine injections); type: in vivo, rat
Method: Cocaine Sensitization. Rats were habituated to the photocell apparatus (AccuScan Instruments; Columbus, Ohio) for two hours and administered saline (i.p.) one day prior to the start of the experiment. On the first day of the experiment, rats were rehabituated to the behavior boxes for one hour prior to the start of the experiment. […] Horizontal activity was measured for 2 hours after every cocaine injection. Saline-cocaine or 3α5βHS-cocaine were administered daily on 7 consecutive days.

NC(CCCP(=O)(O)O)C(=O)O [D-AP5]
effect on NMDA-induced increase in extracellular striatal dopamine ([1]; 100 μM or 200 μM co-perfused with 1 mM NMDA): inhibited; also recorded: attenuated in a dose-dependent manner

CC(=O)[C@H]1CC[C@H]2[C@@H]3CC[C@@H]4C[C@H](O)CC[C@]4(C)[C@H]3CC[C@]12C [pregnanolone]
effect on NMDA-induced increase in extracellular striatal dopamine ([1]; 160 μg/kg i.p. (sub-sedative dose)): had no effect | effect on NMDA-induced increase in extracellular striatal dopamine ([1]; 160 μg/kg i.p. (sub-sedative dose), listed as Pregnanolone): no influence

pregnanolone hemisuccinate [3α5βHS]
tail flick latency at 90 and 120 min ([2]; 3α5βHS 15 mg/kg, compared to the other groups): effective in increasing the latency | analgesia compared to control (pair-wise analysis) ([2]; 10 and 15 mg/kg i.p., at 20, 30, 40, 60, 90 min): significant levels of analgesia | dose dependence of tail flick latency [2]: dose-dependent increase in tail flick latency; also recorded: increased the latency to remove the tail from the light source dose-dependently | duration of analgesic effect compared with morphine (2 mg/kg, s.c.) ([2]; tail flick, mice): longer lasting | sedation (saline+3α5βHS vs saline+vehicle horizontal activity) ([3]; 10 mg/kg i.p., any time point): did not induce sedation | effect on NMDA-induced behavioral activation (horizontal activity) ([3]; 1 and 10 mg/kg i.p. 10 min prior to intra-striatal NMDA, 10 min time point): decrease in horizontal activity; also recorded: blocked | action on NMDA receptors in vitro [4]: inhibits NMDA receptors | effect on NMDA-induced increase in extracellular striatal dopamine ([1]; 5, 10 and 20 mg/kg i.p., 20 and 40 min following NMDA perfusion): inhibits NMDA-induced dopamine release; also recorded: blocked | EC50 for inhibition of NMDA-induced dopamine release ([1]; i.p. injection, 1 mM NMDA perfusion, at 20 min): 4 mg/kg | effect on development of behavioral sensitization to cocaine ([5]; 10 mg/kg i.p. 10 min prior to each of 7 daily cocaine injections (15 mg/kg i.p.)): inhibits the initiation of behavioral sensitization to cocaine; also recorded: inhibited the development of behavioral sensitization to cocaine | effect on behavioral hyperactivity induced by saline administration or an acute cocaine injection ([5]; highest dose used): had no effect

CC(=O)[C@H]1CC[C@H]2[C@@H]3CC[C@@H]4C[C@H](OCC(=O)O)CC[C@]4(C)[C@H]3CC[C@]12C [PACME, pregnanolone carboxy methyl ether]
tail flick latency at 90 and 120 min ([2]; PACME 10 mg/kg): increased the latency | analgesia compared to control (pair-wise analysis) ([2]; PACME 7 and 10 mg/kg, at 20, 30, 40, 60 min following injection): significant levels of analgesia | lengthening of tail flick latency relative to cut-off time ([2]; PACME, dose not stated, cut-off time 10 seconds): near maximal lengthening of the latency time | dose dependence of tail flick latency [2]: increased the latency to remove the tail from the light source dose-dependently | duration of analgesic effect compared with morphine (2 mg/kg, s.c.) ([2]; tail flick, mice): longer lasting | analgesia compared with morphine ([2]; tail flick, mice, PACME vs morphine 2 mg/kg s.c.): analgesia similar to that of morphine

CN1CC[C@]23c4c5ccc(O)c4O[C@H]2[C@@H](O)C=C[C@H]3[C@H]1C5 [morphine, reference compound]
time of greatest analgesic effect following injection ([2]; morphine 2 mg/kg s.c.): 20 min | analgesia compared to control (pair-wise analysis) ([2]; morphine 2 mg/kg s.c., from 20 min to 60 or 90 min following injection): significant levels of analgesia
